Laboratory results reported in article PMC7002685, “Inhibition of vascular calcification by inositol phosphates derivatized with ethylene glycol oligomers” (Nature Communications, 2020).
Values joined by “and” are separate entries in the source; they are usually repeats but may differ in a detail not shown here. Equal values may be shown once. Read-outs that look alike come from different tables or passages of the source.

Key:
[1] = system: TNFα release from THP-1-derived macrophages; experiment: TNFα in macrophage supernatants after CPP2 and compounds; assay type: cell-based, human; settings: for TNFα concentration in macrophage supernatants: 24 h, unit not given
Protocol: Macrophage accumulation and inflammation coincide with the initial phase of calcification. To this end, VSMCs and THP-1-derived macrophages were exposed to CPP2-supplemented medium. CPP2 prepared from human serum as described previously[61] (Supplementary Figs. 6 and 7), induced a pronounced VSMC monolayer calcification after 48 h, which was decreased by (OEG2)2-IP4 in a dose-dependent fashion, and the effect became significant at 10 µM (Fig. 3e). […] Both H2O2 (proxy for oxidative stress) and tumor necrosis factor-alpha (TNF-α) (proxy for inflammatory response) levels were assayed in the VSMC culture supernatants subsequent to CPP2 treatment with and without compounds[30]. However, no increase in H2O2 nor TNF-α compared to control could be detected in either assay. For the CPP-induced VSMC calcification assay (Fig. 3e) a roughly 10-fold higher concentration of (OEG2)2-IP4 was necessary to achieve similar activity as in the CaP-induced VSMC calcification assay (Fig. 3b). […] In the CaP assay, low inhibitor concentration may be sufficient to inhibit crystal nucleation, whereas for the CPP assay higher inhibitor concentrations may be needed to achieve sufficient particle stabilization by chemisorption of inhibitor onto CPPs. Similar results have been reported for hydrogen sulfide in the context of VC[62],[64]. […] An increase in the TNFα levels in the cell culture supernatants was not observed for (OEG2)2-IP4 with (Fig. 3h) and without (Supplementary Fig. 10) combined CPP2 treatment.
THP-1 cells were plated at a density of 200,000 cells/well in a 24-well plate, differentiated as stated above, and subsequently treated with or without CPP2 (50 μg Ca/mL) in complete medium with or without test compounds (3, 10, 30, 100 μM) for 24 h at 37 °C, 5% CO2.
Human TNF-α was assayed in cell culture supernatants using commercial multiplex immunoassay kits (U-Plex of TNF-α (custom-made multiplex plate) and Human TNF- Kit (K151QWD-1), both from MesoScaleDiscovery, Rockville, MD, USA), and corrected for total protein content using the Micro BCA^TM Protein Assay Kit.

[2] = Urinary excretion after s.c. administration; assay type: in vivo, rat; settings: 10 mg/kg s.c.; for Cumulative recovery from rat urine / dose excreted: healthy rats; for dose excreted: rat, urine, subcutaneous, 10 mg/kg, read-out: Cumulative recovery from rat urine
Protocol: To study urinary excretion, six animals were administered s.c. 10 mg/kg of (OEG2)2-IP4 and two animals served as blank urine controls. Animals were placed in separated metabolic cages ([…] S.p.A. Buguggiate, Italy) right after dosing, left there for the entire experiment, and urine was collected after 2, 5, 8, and 24 h. At the end of the experiment, cages were washed with 10 mL water and the washes were collected in separated tubes. Urine samples were centrifuged at 3000 × g and 4 °C for 10 min and stored at −20 °C until quantification of (OEG2)2-IP4 by LC-MS/MS. Recovery (%) was calculated using Eq. (2).2 Recovery%=OEG22IP4μg/doseμg×ratweightkg×100.

[3] = molecular target: T1, Protein Tyrosine Kinase, LCK (Homo sapiens, UniProt P06239); experiment: Off-target 176020; assay type: biochemical
T1 construct: purchased Eurofins Panlabs Discovery Services Taiwan, Ltd
Protocol: (§1) The potential off-target activity of 10 µM (OEG2)2-IP4 was assessed against a panel of 87 enzymes, receptors, or ion channels that are used in standard safety pharmacology screens.
(§2) 3.2. Off-target screening assay
(§3) The experiments were conducted by a contract research organization (Eurofins Panlabs Discovery
(§4) Services Taiwan, Ltd.) and details on the respective assays can be retrieved via the catalog number
(§5) provided in Supplementary Table 11 from the company’s webpage
(§6) (https://www.eurofinsdiscoveryservices.com/). […]

[4] = molecular target: T2, (Rattus norvegicus, UniProt P43140); experiment: Off-target 203100; assay type: binding
T2 construct: purchased Eurofins Panlabs Discovery Services Taiwan, Ltd
Protocol: as §1, §2, §3, §4, §5, §6

[5] = molecular target: T3, (Rattus norvegicus, UniProt P15823); experiment: Off-target 203200; assay type: binding
T3 construct: purchased Eurofins Panlabs Discovery Services Taiwan, Ltd
Protocol: as §1, §2
(§7) The experiments were conducted by a contract research organization (Eurofins Panlabs Discovery Services Taiwan, Ltd.) and details on the respective assays can be retrieved via the catalog number provided in Supplementary Table 11 from the company’s webpage
as §6
(§8) At sacrifice the left tibia of animals of the rat model with dietary adenine/high-phosphate-induced uremia and VC was collected, fixed with 70% v/v EtOH and embedded in methyl methacrylate. The trabecular bone compartment is known to be the most metabolic active i.e. actively re-structured bone compartment in CKD. Therefore, histomorphometric and micro-computed tomography (µCT) analysis of bone was performed on the trabecular compartment. Tibial sections were Goldner-stained for histomorphometric analysis of the proximal metaphysis using the AxioVision Release 4.5 software, as […]
(§9) described previously5. […]

[6] = molecular target: T4, Chemokine CXCR2 (IL-8RB) (Homo sapiens, UniProt P25025); experiment: Off-target 244500; assay type: binding
T4 construct: purchased Eurofins Panlabs Discovery Services Taiwan, Ltd
Protocol: as §1, §2, §7, §6, §8, §9

[7] = system: Glutamate, Kainate; experiment: Off-target 232710; assay type: binding, Rat; settings: 10 µM
Protocol: as §1, §2, §3, §4, §5, §6

[8] = uremic rats, 4 h i.v. infusion of 50 mg/kg; cited from earlier work

T3 sequence (P15823 whole entry): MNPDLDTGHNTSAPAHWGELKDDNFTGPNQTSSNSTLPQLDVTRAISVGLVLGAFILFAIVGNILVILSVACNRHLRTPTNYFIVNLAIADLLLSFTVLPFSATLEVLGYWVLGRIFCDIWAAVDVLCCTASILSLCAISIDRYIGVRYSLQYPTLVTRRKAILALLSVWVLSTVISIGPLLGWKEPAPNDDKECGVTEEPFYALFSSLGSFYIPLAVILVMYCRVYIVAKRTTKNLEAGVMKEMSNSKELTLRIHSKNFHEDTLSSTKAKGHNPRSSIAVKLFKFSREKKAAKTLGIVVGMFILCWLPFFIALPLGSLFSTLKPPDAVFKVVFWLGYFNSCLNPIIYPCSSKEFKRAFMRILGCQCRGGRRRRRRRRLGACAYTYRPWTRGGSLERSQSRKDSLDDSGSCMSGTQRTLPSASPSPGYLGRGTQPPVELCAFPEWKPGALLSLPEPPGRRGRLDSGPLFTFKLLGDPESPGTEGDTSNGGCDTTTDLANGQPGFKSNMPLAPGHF
T4 sequence (P25025 whole entry): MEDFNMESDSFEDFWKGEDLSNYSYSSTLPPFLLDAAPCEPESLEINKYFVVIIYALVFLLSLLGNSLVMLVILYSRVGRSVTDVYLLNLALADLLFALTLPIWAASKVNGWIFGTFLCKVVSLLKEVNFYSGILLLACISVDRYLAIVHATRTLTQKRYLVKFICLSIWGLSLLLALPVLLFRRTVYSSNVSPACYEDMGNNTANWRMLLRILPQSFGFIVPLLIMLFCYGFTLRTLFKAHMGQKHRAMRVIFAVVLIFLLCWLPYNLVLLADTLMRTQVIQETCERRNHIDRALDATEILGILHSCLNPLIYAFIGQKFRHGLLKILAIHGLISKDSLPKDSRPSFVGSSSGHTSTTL
T2 sequence (P43140 whole entry): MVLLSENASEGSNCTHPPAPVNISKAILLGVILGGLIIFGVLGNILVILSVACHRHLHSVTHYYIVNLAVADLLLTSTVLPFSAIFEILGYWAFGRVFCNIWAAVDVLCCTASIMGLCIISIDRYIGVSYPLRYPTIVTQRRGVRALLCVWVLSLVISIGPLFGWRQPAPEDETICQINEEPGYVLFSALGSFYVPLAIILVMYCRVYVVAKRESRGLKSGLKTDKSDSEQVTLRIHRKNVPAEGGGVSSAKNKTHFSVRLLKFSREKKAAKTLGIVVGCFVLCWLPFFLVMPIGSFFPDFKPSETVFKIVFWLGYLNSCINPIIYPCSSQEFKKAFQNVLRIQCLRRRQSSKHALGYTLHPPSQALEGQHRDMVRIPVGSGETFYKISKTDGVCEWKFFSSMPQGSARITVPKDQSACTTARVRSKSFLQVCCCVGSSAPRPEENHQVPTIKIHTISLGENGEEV
T1 sequence (P06239 whole entry): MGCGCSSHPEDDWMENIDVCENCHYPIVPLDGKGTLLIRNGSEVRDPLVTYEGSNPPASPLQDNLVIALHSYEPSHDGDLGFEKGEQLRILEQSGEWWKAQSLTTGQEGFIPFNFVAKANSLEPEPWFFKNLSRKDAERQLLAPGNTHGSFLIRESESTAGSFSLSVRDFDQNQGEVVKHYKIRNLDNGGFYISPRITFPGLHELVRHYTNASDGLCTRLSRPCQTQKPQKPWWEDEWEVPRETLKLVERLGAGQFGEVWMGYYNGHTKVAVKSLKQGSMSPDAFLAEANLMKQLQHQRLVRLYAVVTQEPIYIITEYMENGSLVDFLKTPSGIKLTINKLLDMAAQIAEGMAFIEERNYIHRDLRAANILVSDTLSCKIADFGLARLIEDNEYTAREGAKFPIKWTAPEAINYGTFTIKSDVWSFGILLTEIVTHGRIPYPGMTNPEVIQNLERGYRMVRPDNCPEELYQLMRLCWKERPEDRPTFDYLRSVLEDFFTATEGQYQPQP

Compound | TNFα concentration in macrophage supernatants ([1]; 3 µM + CPP2 50 µg Ca/mL, replicates Fig. 3h) | TNFα concentration in macrophage supernatants ([1]; 10 µM + CPP2 50 µg Ca/mL) | TNFα concentration in macrophage supernatants ([1]; 30 µM + CPP2 50 µg Ca/mL) | increase in TNFα levels in supernatants ([1]; with combined CPP2 treatment) | intact dose recovered in the urine of healthy rats [2] | Cumulative recovery from rat urine ([2]; 2 h, individual rats Fig. 4j) | Cumulative recovery from rat urine ([2]; 8 h) | Cumulative recovery from rat urine ([2]; 24 h) | dose excreted ([2]; 2 h, individual rats Fig. 4j) [%] | dose excreted ([2]; 8 h) [%] | dose excreted ([2]; 24 h) [%] | inhibition at 10 µM [3] [%] | inhibition at 10 µM [4] [%] | inhibition at 10 µM [5] [%] | inhibition at 10 µM [6] [%] | % Inhibition [7] [%] | reduction in serum calcium levels [8] [%]
COCCOCCO[C@@H]1[C@@H](OP(=O)(O)O)[C@H](OCCOCCOC)[C@@H](OP(=O)(O)O)[C@@H](OP(=O)(O)O)[C@H]1OP(=O)(O)O [(OEG2)2-IP4, 4,6-Di-O-(methoxy-diethyleneglycol)-myo-inositol-1,2,3,5-tetrakis(phosphate)] | 169.13 and 90.77 and 60.49 | 111.79 and 105.92 and 63.72 | 131.34 and 98.11 and 72.68 | not observed | Forty percent | 21.7% and 21.3% and 24.6% and 20.5% | 49% and 34.7% and 40.7% and 37.3% and 32.9% | 52.9% and 39.5% and 42.5% and 38.2% and 34.7% | 26.7 | 29.8 | 34.4 | 4 | 1 | 5 | 6 | 17 | –
O=P(O)(O)O[C@H]1[C@H](OP(=O)(O)O)[C@@H](OP(=O)(O)O)[C@H](OP(=O)(O)O)[C@@H](OP(=O)(O)O)[C@H]1OP(=O)(O)O [IP6, myo-Inositol hexakisphosphate] | – | – | – | – | – | – | – | – | – | – | – | – | – | – | – | – | 17
